These are literature values, as cited in patent US10391093B2, “Therapeutic compounds” (Arizona Board of Regents, A Body Corporate of the State of …, priority 2011, dated 2019).

Molecules are shown by their SMILES.

One data set deals with hRXRβ (Homo sapiens, UniProt P28702). As to conditions: read-out: EC50 for the hRXRβ isoform.
Data set [1] concerns the target hRXR. As to conditions: Caco-2 cells.
Data set [2] has as its system hRXR. As to conditions: Caco-2 cells. The source holds these as a separate data set.

Chain of hRXRβ (P28702 whole entry, canonical isoform): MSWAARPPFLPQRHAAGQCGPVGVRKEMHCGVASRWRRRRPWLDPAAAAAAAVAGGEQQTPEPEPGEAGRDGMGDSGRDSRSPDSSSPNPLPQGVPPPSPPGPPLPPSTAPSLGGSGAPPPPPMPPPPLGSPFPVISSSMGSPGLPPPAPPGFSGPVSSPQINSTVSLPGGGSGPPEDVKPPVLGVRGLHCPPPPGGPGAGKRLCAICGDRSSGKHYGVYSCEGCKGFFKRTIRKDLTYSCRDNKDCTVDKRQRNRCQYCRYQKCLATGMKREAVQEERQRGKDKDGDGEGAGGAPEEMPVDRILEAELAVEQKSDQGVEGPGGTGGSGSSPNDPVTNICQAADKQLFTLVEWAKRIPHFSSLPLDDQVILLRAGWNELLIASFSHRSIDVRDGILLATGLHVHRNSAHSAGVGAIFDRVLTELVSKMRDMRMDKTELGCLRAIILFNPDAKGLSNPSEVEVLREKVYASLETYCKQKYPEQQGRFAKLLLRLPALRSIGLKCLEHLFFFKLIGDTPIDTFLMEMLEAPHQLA

A word on the EC50: it is the concentration needed to bring the measured effect to its halfway point. With `Cc1cc2c(cc1-c1cc(/C=C/C(=O)O)ccc1O)C(C)(C)CCC2(C)C` [CD3254], the EC50 on hRXRβ was about 10 nM.

What is called Kd is the equilibrium constant for the complex coming apart. With `C=C(c1ccc(C(=O)O)c(F)c1)c1cc2c(cc1C)C(C)(C)CCC2(C)C` [Compound 3], at hRXR [1], the Kd was 12 nM. In addition, the EC50 in the data set on hRXR [2] was 43 nM.
